Assay results taken from patent publication US11376269B2, “Pharmaceutical compositions for the treatment of chemoresistant acute myeloid leukemia (AML)” (INSERM (INSTITUT NATIONAL DE LA SANTÉ ET DE LA RECHERCHE …, priority 2016, dated 2022).

How the values were obtained:
[1] = tested on: U937; assay: U937 (sensitive) cell line-derived xenograft (CLDX); assay type: in vivo, mice
Experimental: (§1) FIG. 2. Validation of the increase in CD39 after cytarabine (AraC) in 9 patient-derived xenografts, 45 AML patients and 2 cell line-derived xenografts. (A) The total number of human AML cells expressing CD45, CD33 and CD44 in 9 patient-derived xenograft (PDX) was analyzed and quantified using flow cytometry in AraC-treated xenografted mice compared to PBS-treated xenografted mice in bone marrow and spleen. (B) Flow cytometric analysis of the percent of CD34^+CD38^− immature cell population was performed in human viable residual CD45^+CD33^+ AML cells from AraC-treated xenografted mice compared to PBS-treated xenografted mice in bone marrow. (C) The percent of CD39^+ cells in the bulk population and CD34^+CD38^− immature cell population of human viable residual CD45^+CD33^+ AML cells was assessed in AraC-treated xenografted mice compared to PBS-treated xenografted mice in bone marrow by flow cytometry. […]
(§2) Validation of the increase in CD39 expression in 9 patient-derived xenograft (PDX) models treated with cytarabine and in 45 AML patients at D35 compared to diagnosis. […] Then, we analyzed CD39 expression in two AML cell line-derived xenografts, which confirmed our previous results in patients and PDXs.

[2] = tested on: CD39; assay: ATPase activity of CD39 in MOLM14 cells, non-hydrolyzed extracellular ATP by ATPlite assay; assay type: cell-based, human; conditions: MOLM14 after AraC, normoxic and hypoxic conditions
Experimental: (§3) FIG. 3. In vitro study of the CD39 protein expression in MOLM14 AML cells after cytarabine (AraC) treatment in normoxia (21%) and hypoxia (1%). (A) Western analysis of the expression of HIF-1alpha, VDAC, CD39, P2Y13, pATF2 and HSP90 (as loading control) in MOLM14 cells after normoxia (21% O2) or hypoxia (1% O2) for 24 h, 48 h or 72 h. Each lane contained 30 μg of protein. […] Flow cytometric analyses were perform to assess cell viability (B), CD39^+ expression (C-D). […] The ATPase activity of CD39 in MOLM14 cells after Ara-C treatment was assessed and the concentration of non-hydrolyzed extracellular ATP was determined using the ATPlite assay (PerkinElmer) (E).
(§4) Then, we have established an AML cell line model to further study this mechanism. Using MOLM14 AML cell lines and hypoxic condition (1% versus 21% O2), we have analyzed the CD39 expression and ATP-hydrolyzing activity (FIG. 3).

[3] = tested on: primary AML cells from patients; assay: NSG mice xenografted with primary AML cells from patients (PDX), flow cytometry of residual cells; assay type: in vivo
Experimental: FIG. 2. Validation of the increase in CD39 after cytarabine (AraC) in 9 patient-derived xenografts, 45 AML patients and 2 cell line-derived xenografts. (A) The total number of human AML cells expressing CD45, CD33 and CD44 in 9 patient-derived xenograft (PDX) was analyzed and quantified using flow cytometry in AraC-treated xenografted mice compared to PBS-treated xenografted mice in bone marrow and spleen. (B) Flow cytometric analysis of the percent of CD34^+CD38^− immature cell population was performed in human viable residual CD45^+CD33^+ AML cells from AraC-treated xenografted mice compared to PBS-treated xenografted mice in bone marrow. (C) The percent of CD39^+ cells in the bulk population and CD34^+CD38^− immature cell population of human viable residual CD45^+CD33^+ AML cells was assessed in AraC-treated xenografted mice compared to PBS-treated xenografted mice in bone marrow by flow cytometry. (D-E-F) Similarly, flow cytometric analyses of 45 AML patients in peripheral blood at D35 (post-chemotherapy) and diagnosis to assess the percentage of blasts (D), of CD34^+CD38^− immature cells (E), and of CD39^+ residual cells in both total blasts (bulk) and CD34^+CD38^− population (F). (G-H) Flow cytometry analysis of 1 resistant cell line (MOLM14) and 1 sensitive cell line (U937)-derived xenograft (CLDX) to assess the total cell tumor burden of human viable AML cells in AraC- and PBS-treated CLDX (G), the percent of CD39^+ cells (H).
Until recently, mouse models of AML have been extensively used to characterize the nature and origin of LSCs (in part by our group: Sanchez et al. 2009. Sarry et al. 2011), but less frequently used to study their chemoresistance and miminum residual disease in vivo, an approach that is crucial to improve therapeutic outcome of AML patients. Thus, we tested and established an appropriate dose and regimen for use of AraC as baseline cytotoxic in our NSG mice xenografted with primary AML cells from patients seen at diagnosis or relapse of disease. We have access to a large resource of primary samples through our Biobank of the Hematology Clinical Department of the Oncopole Hospital in Toulouse (HIMIP, INSERM-U1037, ˜150 patients newly diagnosed/year) and in collaboration with Drs Gwen Danet-Desnoyers and Martin Carroll (University of Pennsylvania, Pa., USA). Then, we analyzed human AML cells surviving after AraC treatment over time. […] CANCER DISCOVERY. 2017).
Based on this model and the current hypothesis that AraC-resistant cells are rare, replicatively dormant and well adapted to hypoxic conditions (Ishikawa et al. 2007; Raaijmakers, 2011; Wilson and Hay, 2011), we have further analyzed all of these characteristics in AraC-treated patient-xenografted mice. We have first confirmed that CD34^+CD38^− cell population is increased post-AraC chemotherapy in residual AML cells. […] Finally, we have identified a signature of 15 genes (amongst of 350 genes, including CD39/ENTPD1 and P2Y13), that are the most differentially expressed in all of the three AML patient-derived xenografts after AraC treatment as compared to control samples using our in vivo PDX models coupled to a gene expression analysis (FIG. 1a).
Validation of the increase in CD39 expression in 9 patient-derived xenograft (PDX) models treated with cytarabine and in 45 AML patients at D35 compared to diagnosis. We first examined the effect of AraC on CD39 expression in residual viable AML cells from our NSG model xenografted with primary AML cells from 9 patients (FIG. 2a). […] Then, we analyzed CD39 expression in two AML cell line-derived xenografts, which confirmed our previous results in patients and PDXs.

[4] = tested on: MOLM14 cells; assay: Cell viability of MOLM14 cells, AnnexinV/7AAD-based flow cytometry assay; parameters: species or system human
Experimental: FIG. 3. In vitro study of the CD39 protein expression in MOLM14 AML cells after cytarabine (AraC) treatment in normoxia (21%) and hypoxia (1%). (A) Western analysis of the expression of HIF-1alpha, VDAC, CD39, P2Y13, pATF2 and HSP90 (as loading control) in MOLM14 cells after normoxia (21% O2) or hypoxia (1% O2) for 24 h, 48 h or 72 h. Each lane contained 30 μg of protein. (B-C-D) MOLM14 cells were treated with AraC (2 μM, IC50 in normoxia) for 48 h either in normoxia (21% O2) or hypoxia (1% O2). Flow cytometric analyses were perform to assess cell viability (B), CD39^+ expression (C-D). The results are representative of at least three independent experiments. The ATPase activity of CD39 in MOLM14 cells after Ara-C treatment was assessed and the concentration of non-hydrolyzed extracellular ATP was determined using the ATPlite assay (PerkinElmer) (E).
(§5) FIG. 4. In vitro potentiatingeffect of ARL67156 (CD39 inhibitor) with cytarabine (AraC) in MOLM14 cell line. (A-B) MOLM14 cells were either treated or not with 2 μM Ara-C, 100 μmol/L ARL or 250 μmol/L of another CD39 inhibitor, POM-1, for 48 h. Cell viability was assessed using AnnexinV/7AAD-based flow cytometry assay. (C) U937 AML cell line was either treated or not with 0.5 μM Ara-C or 100 μmol/L ARL. The percent of viable cells was analyzed using AnnexinV/7AAD-based flow cytometry assay.
(§6) In vitro potentiating effect of CD39 inhibitor with cytarabine in MOLM14 cell line. In order to explore the effect of CD39 onto the chemoresistance to AraC in AML cell lines in vitro, we first tested the consequence of CD39 inhibition using an ecto-ATPase inhibitor ARL67156. […] High ADP and/or P2YR13 activation might be involved into this compensatory and protective mechanism.

[5] = tested on: CD39; assay: CD39 expression in MOLM14 cells after AraC in normoxia and hypoxia, flow cytometry; assay type: cell-based, human; conditions: MOLM14, AraC 2 μM, 48 h, normoxic and hypoxic conditions
Experimental: as §3, §4

[6] = tested on: AML blasts; assay: Flow cytometry of peripheral blood of 45 AML patients at D35 post-chemotherapy versus diagnosis; assay type: in vivo, human; conditions: day 35 post-AraC versus diagnosis
Experimental: as §1, §2

[7] = tested on: U937 AML cell line; assay: Cell viability of U937 AML cell line, AnnexinV/7AAD-based flow cytometry assay; parameters: species or system human; conditions: U937, 0.5 μM Ara-C, 100 μmol/L ARL
Experimental: as §5, §6

[8] = AraC-treated patient-xenografted mice

| Compound | total cell tumor burden in bone marrow and spleen [1] | CD39 expression ([1]; post-AraC versus vehicle) | remaining ATP (ATP-hydrolyzing activity of CD39) [2] | total cell tumor burden in bone marrow and spleen ([3]; 9 PDX, AraC-treated versus PBS-treated mice) | percent of CD39 cells in bulk and immature CD34+CD38− population ([3]; 9 PDX, AraC-treated versus control mice) | CD34+CD38− population in residual AML cells ([3]; 9 PDX, post-AraC, bone marrow) | killing of cycling and quiescent cells and LSCs in vivo [3, 8] | type of cell death induced in vivo [3, 8] | peripheral engraftment and total cell tumor burden ([3]; all patients tested, PDX in NSG mice) | duration of response ([3]; variable from patient to patient, PDX in NSG mice) | IC50 ([4]; Homo sapiens, MOLM-14, MOLM14 cells, normoxia (21% O2)) | percent and expression of CD39 in residual viable cells [5] | CD34+CD38− population and CD39 cells in residual bulk and immature populations [6] | potentiation of the effect of AraC in inducing cell death [7] | induction of cell death alone ([4]; MOLM14, 100 μmol/L ARL, 48 h, in absence of AraC) | potentiating effect with AraC on cell death ([4]; MOLM14, with 2 μM Ara-C, 100 μmol/L ARL or 250 μmol/L POM-1, 48 h) |
| --- | --- | --- | --- | --- | --- | --- | --- | --- | --- | --- | --- | --- | --- | --- | --- | --- |
| Nc1ccn([C@@H]2O[C@H](CO)[C@@H](O)[C@@H]2O)c(=O)n1 [AraC, cytarabine] | significant cytoreduction | increases | significant decrease | significant cytoreduction | increase in percent of CD39 cells | increase | equally kills both cycling and quiescent cells as well as LSCs in vivo | ROS-/MMP-dependent apoptotic cell death | significant cytoreduction | 2-7 weeks | 2000 nM | increased the percent and expression of CD39 | increase | – | – | – |
| CCN(CC)c1ncnc2c1ncn2[C@@H]1O[C@H](COP(=O)(O)OP(=O)(O)C(Br)(Br)P(=O)(O)O)[C@@H](O)[C@H]1O [ARL67156] | – | – | – | – | – | – | – | – | – | – | – | – | – | did not potentiate the effect of AraC in inducing cell death | did not induce cell death alone | potentiatingeffect |
